Test results as given in BindingDB's records for doi:10.1016/j.bmcl.2008.04.031 (The University of Tokyo, 2008).

Test: Degradation promoting activity of FLAG tagged cIAP1 expressed in human HT1080 cells after 3 hrs by Western blotting analysis

| SMILES | IC50 |
| --- | --- |
| CC(C)C[C@H](NC(=O)[C@@H](O)[C@H](N)Cc1ccccc1)C(=O)OCCNS(=O)(=O)c1cccc2c(N(C)C)cccc12 [(S)-2-(1-(dimethylamino)naphthalene-5-sulfonamido)ethyl 2-((2S,3R)-3-amino-2-hydroxy-4-phenylbutanamido)-4-methylpentanoate] | 1860 nM |
| COC(=O)[C@H](CC(C)C)NC(=O)[C@@H](O)[C@H](N)Cc1ccccc1 [(S)-methyl 2-((2S,3R)-3-amino-2-hydroxy-4-phenylbutanamido)-4-methylpentanoate] | 690 nM |
